{"source": "paper PMC5884652", "about": "“New antimicrobial peptide kills drug-resistant pathogens without detectable resistance” (Oncotarget, 2018)", "key": {"[1]": {"system": "TNF-α and IL-1β in RAW 264.7 macrophages", "test": "Pro-inflammatory cytokines in macrophages", "type": "cell-based, mouse", "procedure": "To examine cytokine expression elicited by S. aureus CCARM 0027, RAW 264.7 mouse macrophages were cultured in DMEM supplemented with antibiotics ([…] penicillin and 100 μg/mL streptomycin) and 10% fetal calf serum in 12-well plates at 37° C in a humidified chamber with an atmosphere containing 5% CO2. Expression of the pro-inflammatory cytokines TNFα and IL-β was evaluated after the addition of S. aureus CCARM 0027 (1 × 10^6 cfu/mL) for 30 min at […]. After treatment, the RAW 264.7 cells (1 × 10^6 cells/mL) were incubated for an additional 24 h with or without CSP-4 (25, 50, 100, and 200 µg/mL). The cells were then collected and the protein was extracted using PRO-PREP™ protein extraction solution (iNtRON Biotechnology, Gyeonggi-do, Korea).\nRAW 264.7 cells (1 × 10^6 cells/mL) were seeded into a 12-well plate and incubated for 24 h as described above. […] The levels of pro-inflammatory cytokines in the supernatants were determined after 12 h using mouse anti-TNF-α and anti-IL-1β antibodies based on absorbance at 450 nm using a microplate reader (VERSA Max microplate reader, Molecular Devices). Cytokine concentrations were also determined using TNF-α and IL-1β enzyme-linked immunosorbent assay kits (Koma Biotech, Seoul, Korea). […]"}, "[2]": {"system": "E. coli CCARM1238", "test": "microbe, parasite or virus in culture", "type": "cell-based, Escherichia coli", "conditions": "pH 7.4 (II); 10 mM sodium phosphate buffer, 10% LB; 37° C, 24 h; mean of 3 experiments", "excerpt": "The method for peptide synthesis has been described in detail previously. E. coli ATCC 25922 (LB media), P. aeruginosa ATCC 15692 (NB+0.5% NaCl media), Listeria monocytogenes ATCC 3710 (LB media), Staphylococcus epidermidis ATCC 12228 (LB media), and S. aureus ATCC 29213 (TSB media) were obtained from the American Type Culture Collection (Manassas, VA, USA). Bacillus subtilis KCTC 1998 (LB media), Salmonella typhimurium KCTC 1926 (NB media), and Proteus vulgaris KCTC 2433 (NB media) were obtained from the Korean Collection for Type Cultures (Jeollabuk-do, Korea). E. coli CCARM 1238 was received from the Culture Collection of Antibiotic Resistant Microbes at Seoul Women’s University, Korea. Drug-resistant P. aeruginosa 3543, 3904, 3547, and 4007 and S. aureus 3126, 0027, 5157, 1635, 4761, 5159, 3359, 2122, 1630, 1870, 3511, 5156, and 3518 were resistant strains isolated from patients with otitis media in a Chonnam National University’s hospital.\nThe antibacterial activities of AMPs (melittin, clavaspirin, and its analogs) and conventional antibiotic drugs (erythromycin, gentamicin, ampicillin, and piperacidin) were determined using microdilution assays. Bacterial cells were cultured at 37° C in appropriate culture media at pH 5.5 or pH 7.4 until collection during the mid-log phase and suspended in 10 mM sodium phosphate buffer (pH 5.5 or pH 7.4) supplemented with 10% culture medium. Thereafter, 2× serial dilutions of each peptide (0.25–128 μM) or antibiotic (0.25–256 μM) were added to sterile 96-well plates, and aliquots of cell suspension (5 × 10^5 colony forming units (cfu)/mL) were seeded into each well. The samples were then incubated at 37° C for 24 h. At the end of the incubation, the minimum inhibitory concentrations (MICs) of the peptides were determined using a VERSA Max microplate reader (Molecular Devices Co., Sunnyvale, CA, USA) at a wavelength of 600 nm. […] MIC values were calculated as the mean of 3 independent experiments conducted in triplicate."}, "[3]": {"system": "E. coli", "test": "Time-kill kinetics", "type": "cell-based", "conditions": "pH 5.5 and pH 7.4, peptides at their respective MICs", "procedure": "E. coli were grown overnight in LB broth (pH 5.5 or pH 7.4) and diluted to an OD600 of 0.05. CSP-4 was then added so that the final concentration was either the MIC or 1/2 MIC. E. coli cells were then sampled at 1-min intervals for the first 10 min and at 10-min intervals thereafter for 2 h. The cultures were then diluted 50-fold in PBS buffer and plated on LB agar. Colonies were counted after 24 h."}}, "note": "Ends that are not written are not given here."}
{"substance": "FLRFIGSVKHGKGHLVHHIGVAL-NH2 [CSP-4]", "values": [{"measurement": "TNF-α and IL-1β levels", "setting": "[1]; RAW 264.7 cells exposed to S. aureus CCARM 0027 (1 × 10^6 cfu/mL), CSP-4 25, 50, 100, and 200 μg/mL, ELISA", "value": "significantly decreased"}, {"measurement": "TNF-α and IL-1β levels", "setting": "[1]; RAW 264.7 cells treated with 1 μg/mL S. aureus LTA, CSP-4 100 µg/mL, immunocytochemistry", "value": "reduced TNF-α and IL-1β levels"}, {"measurement": "MIC", "setting": "[2]", "value": 2, "unit": "µM"}, {"measurement": "Killing kinetics", "setting": "[3]", "value": "reduced bacterial growth faster than CSP"}]}
